What was measured:
Type in all cases: biochemical
AP-DNA = experiment: Oxime formation kinetics of probe with AP-DNA; details: 5 μM probe; for rate of oxime formation with AP DNA: Oligo 15 20 μM, 37° C.; for reaction rate of oxime formation relative to CCVJ1 (longer linker): 20 μM AP-DNA, 50 mM Tris pH 7.0
Description: FIG. 3 provides representative plots for calculations of k2 for Compound (1) (CCVJ1) under various buffer conditions with oligo 15. Plots were fitted in OriginPro 8.5 according to the equation derived by Larsen et. al.^5 for second-order rate constants of oxime formation. Apparent second-order rate constants were calculated as the average of three replicates.
FIG. 5A provides fluorescence real-times responses for oxime formation under varied conditions. The Time course of oxime formation between Compound (1) (CCVJ1) (5 μM) and AP-DNA (20 μM) under varied buffer conditions (50 mM) is shown. Ionic strength adjusted to 150 mM with NaCl
Next the reaction rates with CCVJ1 were evaluated. To measure oxime formation kinetics, 5 μM CCVJ1 was reacted with 20 μM AP DNA, and the resulting fluorescence time course was used to determine second-order rate constants by nonlinear regression analysis. Tris buffer was selected since it is commonly used in glycosylase assays with a salt concentration of 100 mM NaCl.
In addition to Tris buffer, oxime formation kinetics were also measured for CCVJ1 with AP DNA in a solution of a catalytic amine buffer previously shown to accelerate oxime formation. To this end, it was employed 50 mM N,N-dimethylethylenediamine (DEDA)•HCl buffered to a pH of 7.0 in place of the above Tris buffers. […] Such rapid rates of oxime formation at neutral pH are unprecedented for unactivated aldehydes.
(§1) In addition to the 5′ and 3′ neighboring bases, studies were done of the effect of the orphaned base Z paired opposite the abasic site on the UBER probe system (FIG. 10, panels C-D). Using the sequence where X=C and Y=G, the identity was varied of the base Z opposite the AP site. […] As a result, the smaller pyrimidine bases yielded a greater fluorescence light up response than the larger purine bases. It was also observed a strong effect by the opposing base on the rate of oxime formation (FIG. 10, panel D). […] This trend is in contrast to the neighboring base effect discussed above in which stronger stacking bases accelerated the rate of oxime formation.
(§2) General procedure for creating AP site DNA: A deoxyuridine containing oligonucleotide (typically 5-20 μM) was treated with 10 U/mL E. coli UDG (New England Biolabs) for 10 minutes at 37° C. in buffer to create AP site containing DNA (see below for MALDI-TOF confirmation). The hairpin was then reacted with probe from a DMSO stock solution (final DMSO concentration <5%).
Fluorescence time courses: Unless otherwise stated, fluorescence time courses were collected on a Fluoroskan Ascent Microplate Fluorometer (Thermo Fisher Scientific) with black, non-binding 384 well plates (Greiner) at a reaction volume of 60 μL with 50 mM Tris buffer pH 7 (ionic strength adjusted to 100 mM with NaCl) with a fluorescein filter set (Ex. 485, Em. 538).

[1] = test system: DNA AP site (AP site containing DNA, oligo 15); experiment: Fluorescence response of probe covalently attached to the AP site of a DNA hairpin; details: for brightness when bound to the AP site compared to CCVJ1: Oligo 15 DNA
Description: FIG. 2B provides emission spectra of oligonucleotide-probe conjugates compared to the emission spectra of the free probe at 2 μM concentration in 50 mM Tris buffer pH 7.0. Excitation was at 470 nm for Compound (1) (also referred to herein as CCVJ1) and 450 nm for Compounds 8 and 9 (also referred to herein as NP1 and NP2) and Compounds 4 and 6 (also referred to herein as BD1 and BD2).
To assess the potential fluorescence response of each probe, a 17mer DNA hairpin containing a single AP site was prepared and reacted it with a 10-fold excess of probe overnight. The subsequent DNA-probe conjugates were precipitated to remove excess fluorophore and full DNA labelling was confirmed by MALDI-TOF mass spectrometry (Table 1). The reacted DNAs were re-suspended in buffer to a concentration of 2 μM and the emission spectra compared with the spectra of the free probes in solution. […] In addition to its large fluorescence response, CCVJ1 is accessed readily through a facile 4-step synthesis and has good spectral overlap with fluorescein. This makes the probe accessible to a wide range of researchers and well suited to the majority of fluorescence-based instruments.
as §1, §2
Procedure for assessing fluorescence response of probes: To assess the fluorescence response of the probes, 25 μM AP site containing DNA (oligo 15) was prepared in a 20 μL solution and allowed to react with 500 μM of each probe overnight. The DNA was then precipitated by the addition of 80 μL 0.33 M sodium acetate and 300 μL ethanol and centrifuged at 21,100 g for 1 hr at 4° C. The resulting DNA pellet was washed twice with 70% EtOH and re-suspended in buffer to a concentration of 2 μM. A portion of the DNA pellet was used for MALDI-TOF analysis. The emission spectra of the probe-oligonucleotide conjugate was measured and compared against a 2 μM solution of the free probe

AP site-containing DNA = experiment: Competition for oxime formation between CCVJ1 and AP site-containing DNA; details: up to 500 μM linker, CCVJ1 5 μM, AP DNA 20 μM
Description: FIG. 6 provides effect of adding exemplary linker NH2CH2CH2ONH2 to the reaction of Compound (1) (CCVJ1) (5 μM) with AP site containing DNA (20 μM) in buffer.
FIG. 9 provides interaction between Compound (1) (CCVJ1) and DNA. […] (Ex. 485, Em. 538).
FIG. 14 provides effect of competing aldehydes/ketones on maximum fluorescence signal.
Additional experiments were performed to study the origins of this unusually rapid reaction. […] To test the effect that proximity between the alkoxyamine and planar portion of the probe had on oxime kinetics in our probes, probes were synthesized having variable-length linkers (CCVJ2 and CCVJ3) from aldehyde reactive linkers L2 and L3 respectively (FIG. 2A). […] To test the importance of a double-stranded DNA structure to the rate and fluorescence response, an AP-containing single-stranded DNA oligonucleotide was reacted with CCVJ1. At pH 7, CCVJ1 reacted with a second-order rate constant of 33 M^−1s^−1 with the single-stranded substrate, roughly 5-fold slower than a double-stranded hairpin with identical sequence context (FIG. 8).
To further explore the hypothesis that the oxime rate acceleration in these AP-site DNAs was related to base stacking interactions, the fluorescence was measured of CCVJ1 in the presence and absence of a non-lesion containing DNA hairpin.
Since the probe design involves conformational restriction to induce a light-up signal, it was hypothesized that off-target oxime formation with small molecules might induce a relatively small signal relative to DNA, thus providing a measure of selectivity in signaling. […] Another potential aspect is that ketones or aldehydes in the environment might compete with the DNA AP site to react with the aminooxy group, thereby consuming the free probe and reducing the maximum signal. Initial testing of the reactivity of CCVJ1 with AP site-containing DNA in the presence of increasing amounts of competing 2-deoxyribose, the closest small-molecule analogue to the DNA AP site. […] This was repeated this experiment with pyruvic acid, a highly reactive ketone and a common cellular metabolite.

OGG1 = target: T1, OGG1 (Homo sapiens, UniProt O15527); experiment: OGG1 activity in MCF7 lysates with CCVJ1; details: MCF7 lysate 0.2 mg/mL, 4 h incubation, 25 μM CCVJ1
T1 construct: host or cells: MCF-7 whole cell lysate
T1 sequence (O15527 whole entry): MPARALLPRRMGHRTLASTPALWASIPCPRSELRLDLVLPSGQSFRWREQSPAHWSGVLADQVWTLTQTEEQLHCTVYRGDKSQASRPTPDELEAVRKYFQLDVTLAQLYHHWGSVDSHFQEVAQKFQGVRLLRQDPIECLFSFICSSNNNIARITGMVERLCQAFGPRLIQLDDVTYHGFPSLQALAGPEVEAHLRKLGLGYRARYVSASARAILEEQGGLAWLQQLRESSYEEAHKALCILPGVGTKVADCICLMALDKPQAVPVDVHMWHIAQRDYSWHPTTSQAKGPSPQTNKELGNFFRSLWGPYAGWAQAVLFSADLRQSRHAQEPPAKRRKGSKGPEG
Description: FIG. 20 provides fluorescence measurement of MCF7 cell lysates (0.2 mg/mL) with 25 μM Compound (1) (CCVJ1) following a 4-hour incubation with 5 μM of an OGG1 hairpin substrate. The inhibitor SU0268 was used to abrogate OGG1 activity. Error bars represent standard deviation of three replicates.
Encouraged by the results, whether the UBER probe could detect endogenous glycosylase activity was tested from a more challenging target such as OGG1. It is well established that the turnover number of UNG is quite high (˜1-10 s^−1)^5 while the turnover number for many other glycosylases is quite low (0.001-0.1 s^−1). Additionally, most glycosylases, including OGG1, have very low basal expression levels in healthy cells. Given these facts, previous attempts to detect OGG1 activity in lysates have relied on a multistep signal amplification process or extended reaction times (24-48 hrs) to yield signal. […] In this case, the majority of the background signal observed was attributed to intercalation of probe into unreacted hairpin as well as genomic DNA.
(§3) Cell Lysate Experiments: HeLa or MCF-7 whole cell lysates (Santa Cruz Biotech) were used without further preparation. […] Fluorescence intensity was monitored over the course of 4 hours at 37° C.

UNG [2] = target: T2, UNG (Homo sapiens, UniProt P13051); experiment: UNG activity in HeLa cell lysate with CCVJ1; parameters: profile endogenous glycosylase activity in cell lysates; host or cells: HeLa whole cell lysate; details: 1 U/mL UGI, 0.2 mg/mL HeLa lysate, 5 μM hairpin, 25 μM CCVJ1
T2 sequence (P13051 whole entry): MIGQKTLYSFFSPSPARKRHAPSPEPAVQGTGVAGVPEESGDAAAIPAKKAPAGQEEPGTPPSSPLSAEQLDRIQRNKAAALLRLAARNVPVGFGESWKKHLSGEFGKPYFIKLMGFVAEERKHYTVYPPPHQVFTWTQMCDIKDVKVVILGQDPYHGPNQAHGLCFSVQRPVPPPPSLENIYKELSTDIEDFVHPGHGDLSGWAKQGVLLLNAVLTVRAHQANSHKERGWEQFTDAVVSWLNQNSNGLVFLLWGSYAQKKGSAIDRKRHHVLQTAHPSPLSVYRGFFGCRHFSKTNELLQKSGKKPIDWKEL
Description: FIG. 19, panels A-B illustrates applications of an exemplary probe for measuring multiple repair activities in cell lysates. […] The inhibitor UGI was used at a concentration of 1 U/mL to completely abolish UNG activity. […] Activity was quantified by measuring initial rate velocity using 25 μM CCVJ1 with lysate (0.2 mg/mL) and 5 μM of UNG hairpin substrate.
It was first tested whether the UBER probe's ability to report on UNG activity in whole cell lysates using the previously described UNG hairpin substrate (FIG. 19, panel A). […] To confirm that the fluorescence response originated from endogenous UNG activity and not off-target binding with proteins or spontaneous depurination, lysate was treated with CCVJ1 and a control hairpin in which the lesion had been replaced by an undamaged T:A base pair. Importantly, the control hairpin yielded no fluorescence response indicating a low degree of false positive signal. […] CCVJ1 appears to represent the first fluorogenic probe to measure real-time UNG activity in cell lysates.
as §3

UNG [3] = target: T2, UNG; experiment: UGI IC50 measurement in UBER probe coupled assay; parameters: purchased OriGene; details: UNG 5 nM, UGI 0.3 to 30 nM, initial rates after 25 minute delay, triplicate
Description: FIG. 15, panels A-G provides quantitative coupled assays using Compound (1) (CCJV1). Shown are data from reaction of lesion containing substrates with UNG and SMUG1 (5 nM) (panel A), MPG (100 nM) (panel B), NTH1 (500 nM) (panel C), OGG1 (100 nM) in real-time (panel D) with lesion containing DNA (2 μM) and CCVJ1 (20 μM) (panels A, B and D) or lesion containing DNA (60 μM) and CCVJ1 (20 μM) […]. […] Delay time tss of 25 minutes indicated with dotted line.
Based on the results of our neighboring base effect study, several glycosylase oligonucleotide substrates were purchased or prepared in which the identity of the base lesion X was varied to correspond to the known activities of different target glycosylases (FIG. 15, panel E). For these studies human enzymes SMUG1/UNG, OGG1, MPG and NTH1, were chosen which represent a diverse array of human glycosylases. […] Assays were carried out in a 60 μL volume in a 384 well format on a microplate reader using a fluorescein filter set. For each enzyme, it was possible to observe a robust fluorescence signal (FIG. 15, panels A-D).
To test the utility of the probe coupled assay for characterizing inhibitors, it was measured the IC50 value of the UNG inhibitor UGI (FIG. 15, panels F-G). […] In all cases, the z-factor of the assay was calculated to be >0.95, well above the threshold necessary for high throughput screening. […]

CN(C)c1ccc(S(=O)(=O)N(C)CCON)c2nonc12 [BD1]
rate of oxime formation with AP DNA (AP-DNA): accelerated rates of oxime formation
fluorescence response with AP DNA [1]: substantial fluorescence responses

CN(CCON)c1ccc(S(=O)(=O)N(C)C)c2nonc12 [BD2]
rate of oxime formation with AP DNA (AP-DNA): accelerated rates of oxime formation
fluorescence response with AP DNA [1]: substantial fluorescence responses

N#C/C(=C\c1cc2c3c(c1)CCCN3CCC2)C(=O)NCCOCCON [CCVJ2]
reaction rate of oxime formation relative to CCVJ1 (longer linker) (AP-DNA): slowed the reaction rate considerably
brightness when bound to the AP site compared to CCVJ1 [1]: diminished compared to that of CCVJ1

N#C/C(=C\c1cc2c3c(c1)CCCN3CCC2)C(=O)NCCOCCOCCON [CCVJ3]
reaction rate of oxime formation relative to CCVJ1 (longer linker) (AP-DNA): slowed the reaction rate considerably
brightness when bound to the AP site compared to CCVJ1 [1]: diminished compared to that of CCVJ1

NCCON [Compound L1, NH2CH2CH2ONH2]
effect as competing alpha nucleophile on reaction of CCVJ1 with AP DNA (AP site-containing DNA): no effect
effect as competing alpha nucleophile on reaction of CCVJ1 with AP DNA (AP site-containing DNA; listed as NH2CH2CH2ONH2): does not significantly compete with CCVJ1 for oxime formation

CN(CCON)c1ccc2c3c(cccc13)C(=O)N(CCC(=O)O)C2=O [NP1]
rate of oxime formation with AP DNA (AP-DNA): accelerated rates of oxime formation
fluorescence response with AP DNA [1]: substantial fluorescence responses

NC(=O)c1cccc(-c2ccc(S(=O)(=O)Nc3ccc4c(c3)N(C(=O)C3CC3)CCC4)cc2)c1 [SU0268]
effect of inhibitor on OGG1 repair activity in lysate (OGG1): completely abolished OGG1 repair activity

B1: UGI: the UNG inhibitor UGI; tight 1:1 binding stoichiometry; protein inhibitor (protein, UniProt P14739 1-84, looked up)
Uracil-DNA glycosylase …: MTNLSDIIEKETGKQLVIQESILMLPEEVEEVIGNKPESDILVHTAYDESTDENVMLLTSDAPEYKPWALVIQDSNGENKIKML
effect of inhibitor on fluorescence response (UNG activity) in lysate (UNG [2]): completely ablated the fluorescence response
IC50 (UNG [3]): 7.53 ± 0.44 nM

Reference: patent US20210147932A1, “FLUORESCENT PROBES FOR QUANTIFICATION OF DNA DAMAGE AND REPAIR” (The Board of Trustees of the Leland Stanford Junior …, priority 2019, published 2021)
